Our source for the IC50 values is US20190134005A1 (BioMarin Pharmaceutical Inc., priority 2016, published 2019).

This experiment has as its target T1, human CGT (Homo sapiens, UniProt Q16880).
T1 sequence (Q16880 21-541): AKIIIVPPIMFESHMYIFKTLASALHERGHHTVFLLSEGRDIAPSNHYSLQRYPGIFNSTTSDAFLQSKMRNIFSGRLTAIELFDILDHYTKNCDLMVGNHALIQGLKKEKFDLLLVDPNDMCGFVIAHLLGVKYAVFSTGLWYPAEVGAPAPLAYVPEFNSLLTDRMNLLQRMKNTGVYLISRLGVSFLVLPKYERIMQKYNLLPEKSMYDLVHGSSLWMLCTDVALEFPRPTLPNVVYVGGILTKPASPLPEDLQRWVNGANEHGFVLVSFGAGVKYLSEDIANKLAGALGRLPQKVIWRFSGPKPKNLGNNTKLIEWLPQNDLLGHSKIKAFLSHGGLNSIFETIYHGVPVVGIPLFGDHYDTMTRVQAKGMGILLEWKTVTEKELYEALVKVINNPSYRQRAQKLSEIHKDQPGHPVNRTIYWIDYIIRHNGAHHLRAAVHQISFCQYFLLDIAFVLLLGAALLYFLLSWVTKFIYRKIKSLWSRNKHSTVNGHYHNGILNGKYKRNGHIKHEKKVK
Description: Assay 1: CGT Enzymatic Assay (RapidFire/MS/MS, 0.01% Tween 80). In kind it is biochemical. The note with it: Table 1, Compounds of Formula (I) and Formula (II), CGT enzymatic assay, read-out: IC50.

[1] abbreviates: C6-NBD-dihydro-galactosylceramide readout.

Where two headings read alike, the source gives them in different places.

Turning to `Cc1cccc(C2(C)C(O)N(c3ccc(Cl)cc3)C(=O)N2c2ccc(Cl)cc2)c1` (stereo not drawn) [Example 222, 1,3-bis(4-chlorophenyl)-5-hydroxy-4-methyl-4-(m-tolyl)imidazolidin-2-one], the IC50 was less than 1000 nM.

In the case of `CCc1cccc(C2(O)[C@H](C)N(c3ccc(Br)cc3)C(=O)N2c2ccc(Br)cc2)c1` (stereo partly drawn) [Compound 68-1, (5S)-1,3-bis(4-bromophenyl)-4-(3-ethylphenyl)-4-hydroxy-5-methylimidazolidin-2-one], the IC50 was less than 1000 nM.

With `CC1(c2cccc(Cl)c2)C(O)N(c2ccc(Cl)cc2)C(=O)N1c1ccc(Cl)cc1` (stereo not drawn) [Compound 149, 4-(3-chlorophenyl)-1,3-bis(4-chlorophenyl)-5-hydroxy-4-methylimidazolidin-2-one], the IC50 is less than 1000 nM.

`CC(F)(F)c1cccc(C2(O)N(c3ccc(Cl)cc3)C(=O)N(c3ccc(Cl)cc3)C23COC3)c1` (stereo not drawn) [Compound 271, 5,7-bis(4-chlorophenyl)-8-(3-(1,1-difluoroethyl)phenyl)-8-hydroxy-2-oxa-5,7-diazaspiro[3.4]octan-6-one]: under setting [1], the IC50 was less than 1000 nM.

With `Cc1ccc(N2C(=O)N(c3ccc(C#N)cc3)C(C)(C)C2(O)c2cccc(C#N)c2)cc1` (stereo not drawn) [Compound 270, 3-(1-(4-cyanophenyl)-4-hydroxy-5,5-dimethyl-2-oxo-3-(p-tolyl)imidazolidin-4-yl)benzonitrile], the IC50 under setting [1] is less than 1000 nM.

As for `COc1ccccc1C1(O)C(=O)N(c2ccc(Br)cc2)C(=O)N1c1ccc(Br)cc1` (stereo not drawn) [Example 206, 1,3-bis(4-bromophenyl)-5-hydroxy-5-(2-methoxyphenyl)imidazolidine-2,4-dione], the IC50 was greater than 50000 nM.

On to `Cc1ccc(N2C(=O)N(c3ccc(Cl)cc3)C(O)(c3cccc(C#N)c3)C2(C)C)cc1` (stereo not drawn) [Example 317, 3-(3-(4-chlorophenyl)-4-hydroxy-5,5-dimethyl-2-oxo-1-(p-tolyl)imidazolidin-4-yl)benzonitrile], for which, under setting [1], the half-inhibitory concentration (IC50) is less than 1000 nM.

As for `CCCC[C@@H]1N(c2ccc(Cl)cc2)C(=O)N(c2ccc(Cl)cc2)C1(O)c1cccc(C#N)c1` (stereo partly drawn) [Compound 116-1, 3-((5S)-5-butyl-1,3-bis(4-chlorophenyl)-4-hydroxy-2-oxoimidazolidin-4-yl)benzonitrile], the IC50 is less than 1000 nM.

For the compound `CC1N(c2ccc(Cl)cc2)C(=O)N(c2ccc(Cl)cc2)C1(O)c1cccc(C#N)c1` (stereo not drawn) [Compound 99, 3-(1,3-bis(4-chlorophenyl)-4-hydroxy-5-methyl-2-oxoimidazolidin-4-yl)benzonitrile], the IC50 is less than 1000 nM.

In the case of `CC[C@H]1N(c2ccc(Cl)cc2)C(=O)N(c2ccc(Cl)cc2)C1(O)c1cccc(C)c1` (stereo partly drawn) [Compound 75-2, (5R)-1,3-bis(4-chlorophenyl)-5-ethyl-4-hydroxy-4-(m-tolyl)imidazolidin-2-one], the IC50 was less than 1000 nM.

`CC1(C)N(c2ccc(Cl)cc2)C(=O)N(c2ccc(Cl)cc2)C1(O)c1cccc(C#N)c1` (stereo not drawn) [Compound 138, 3-(1,3-bis(4-chlorophenyl)-4-hydroxy-5,5-dimethyl-2-oxoimidazolidin-4-yl)benzonitrile]: the IC50 is less than 1000 nM.

Consider `CC1(O)C(=O)N(c2ccc(Br)cc2)C(=O)N1c1ccc(Br)cc1` (stereo not drawn) [Example 193, 1,3-bis(4-bromophenyl)-5-hydroxy-5-methylimidazolidine-2,4-dione], for which the IC50 was 50000 to 100000 nM.

Regarding `N#Cc1ccc(N2C(=O)N(c3ccc(C#N)cc3)C(O)(c3cccc(C#N)c3)C23CCC3)cc1` (stereo not drawn) [Compound 294, 4,4′-(8-(3-cyanophenyl)-8-hydroxy-6-oxo-5,7-diazaspiro[3.4]octane-5,7-diyl)dibenzonitrile], under setting [1], the IC50 was less than 1000 nM.

As to `O=C1N(c2ccccc2)CC(O)(c2ccccc2)N1c1ccc(Br)cc1` (stereo not drawn) [Example 20, 3-(4-bromophenyl)-4-hydroxy-1,4-diphenylimidazolidin-2-one], the IC50 is greater than 50000 nM.

On to `CCc1ccc(N2C(=O)N(c3ccc(C#N)cc3)C3(COC3)C2(O)c2cccc(OC(F)(F)F)c2)cc1` (stereo not drawn) [Example 337, 4-(7-(4-ethylphenyl)-8-hydroxy-6-oxo-8-(3-(trifluoromethoxy)phenyl)-2-oxa-5,7-diazaspiro[3.4]octan-5-yl)benzonitrile], for which the IC50 under setting [1] is less than 1000 nM.

`Cc1ccc(N2C(=O)N(c3ccc(C#N)cc3)C3(COC3)C2(O)c2cccc(OC(F)(F)F)c2)cc1` (stereo not drawn) [Compound 277, 4-(8-hydroxy-6-oxo-7-(p-tolyl)-8-(3-(trifluoromethoxy)phenyl)-2-oxa-5,7-diazaspiro[3.4]octan-5-yl)benzonitrile]: the IC50 under setting [1] was less than 1000 nM.

On to `C[C@H]1N(c2ccc(Br)cc2)C(=O)N(c2ccc(Br)cc2)C1(O)c1cccc(Cl)c1` (stereo partly drawn) [Compound 73-2, (5R)-1,3-bis(4-bromophenyl)-4-(3-chlorophenyl)-4-hydroxy-5-methylimidazolidin-2-one], for which the 50% inhibitory concentration (IC50) was less than 1000 nM.

Take `CCC[C@H]1N(c2ccc(Br)cc2)C(=O)N(c2ccc(Br)cc2)C1(O)c1cccc(C)c1` (stereo partly drawn) [Compound 96-2, (5R)-1,3-bis(4-bromophenyl)-4-hydroxy-5-propyl-4-(m-tolyl)imidazolidin-2-one]: the IC50 is less than 1000 nM.

On to `CCC1N(c2ccc(F)cc2)C(=O)N(c2ccc(F)cc2)C1(O)c1cccc(C(F)(F)F)c1` (stereo not drawn) [Compound 139, 5-ethyl-1,3-bis(4-fluorophenyl)-4-hydroxy-4-(3-(trifluoromethyl)phenyl)imidazolidin-2-one], for which the concentration for half-maximal inhibition (IC50) is 1000 to 10000 nM.

On to `O=C1N(c2ccc(Cl)cc2)C2(CC2)C(O)(c2cccc(OC(F)(F)F)c2)N1c1ccc(Cl)cc1` (stereo not drawn) [Example 224, 4,6-bis(4-chlorophenyl)-7-hydroxy-7-(3-(trifluoromethoxy)phenyl)-4,6-diazaspiro[2.4]heptan-5-one], for which the IC50 is less than 1000 nM.

Take `COC[C@@]1(C)N(c2ccc(Cl)cc2)C(=O)N(c2ccc(Cl)cc2)[C@]1(O)c1cccc(OC(F)(F)F)c1` [Compound 296-4, (4S,5R)-1,3-bis(4-chlorophenyl)-4-hydroxy-5-(methoxymethyl)-5-methyl-4-(3-(trifluoromethoxy)phenyl)imidazolidin-2-one]: the IC50 under setting [1] is less than 1000 nM.

As to `CC(C)c1ccc(N2C(=O)N(c3ccc(C(C)C)cc3)C(O)(c3ccccc3)C2=O)cc1` (stereo not drawn) [Compound 145, 5-hydroxy-1,3-bis(4-isopropylphenyl)-5-phenylimidazolidine-2,4-dione], the IC50 is 50000 to 100000 nM.

With `CCCc1c(-c2cccc(C(F)(F)F)c2)n(-c2ccc(Cl)cc2)c(=O)n1-c1ccc(Cl)cc1` [Compound 243, 1,3-bis(4-chlorophenyl)-4-propyl-5-(3-(trifluoromethyl)phenyl)-1,3-dihydro-2H-imidazol-2-one], the IC50 lay in the range of 1000 to 10000 nM.

As to `O=C1N(c2ccc(Cl)cc2)C(c2ccccc2)C(O)(CO)N1c1ccc(Cl)cc1` (stereo not drawn) [Example 218, 1,3-bis(4-chlorophenyl)-4-hydroxy-4-(hydroxymethyl)-5-phenylimidazolidin-2-one], the IC50 lay within 10000 to 50000 nM.

In the case of `CCC[C@@H]1N(c2ccc(Cl)cc2)C(=O)N(c2ccc(Cl)cc2)C1(O)c1cccc(CC)c1` (stereo partly drawn) [Compound 89-1, (5S)-1,3-bis(4-chlorophenyl)-4-(3-ethylphenyl)-4-hydroxy-5-propylimidazolidin-2-one], the half-maximal inhibitory concentration (IC50) is less than 1000 nM.

In the case of `O=C1N(c2ccc(OC3CCCC3)cc2)C(=O)C(O)(c2ccccc2)N1c1ccc(OC2CCCC2)cc1` (stereo not drawn) [Example 168, 1,3-bis(4-(cyclopentyloxy)phenyl)-5-hydroxy-5-phenylimidazolidine-2,4-dione], the IC50 was greater than 50000 nM.

For `CCCC1N(c2ccc(Cl)cc2)C(=O)N(c2ccc(Cl)cc2)C1(O)c1cccc(CC)c1` (stereo not drawn) [Compound 89, 1,3-bis(4-chlorophenyl)-4-(3-ethylphenyl)-4-hydroxy-5-propylimidazolidin-2-one], the IC50 is less than 1000 nM.

Turning to `CCc1c(-c2cccc(C#N)c2)n(-c2ccc(F)cc2)c(=O)n1-c1ccc(F)cc1` [Compound 252, 3-(5-ethyl-1,3-bis(4-fluorophenyl)-2-oxo-2,3-dihydro-1H-imidazol-4-yl)benzonitrile], the IC50 lay within 1000 to 10000 nM.

As to `CCCC1N(c2ccc(Cl)cc2)C(=O)N(c2ccc(Cl)cc2)C1(O)c1cccc(C#N)c1` (stereo not drawn) [Compound 101, 3-(1,3-bis(4-chlorophenyl)-4-hydroxy-2-oxo-5-propylimidazolidin-4-yl)benzonitrile], the IC50 was less than 1000 nM.

Take `CCOC(=O)C1(O)C(c2ccccc2)N(c2ccc(Cl)cc2)C(=O)N1c1ccc(Cl)cc1` (stereo not drawn) [Example 217, ethyl 1,3-bis(4-chlorophenyl)-4-hydroxy-2-oxo-5-phenylimidazolidine-4-carboxylate]: the IC50 lay within 1000 to 10000 nM.

Consider `O=C1N(c2ccc(Cl)cc2)C(C2CCC2)C(O)(c2cccc(OC(F)(F)F)c2)N1c1ccc(Cl)cc1` (stereo not drawn) [Example 191, 1,3-bis(4-chlorophenyl)-5-cyclobutyl-4-hydroxy-4-(3-(trifluoromethoxy)phenyl)imidazolidin-2-one], for which the half-inhibitory concentration (IC50) is less than 1000 nM.

In the case of `CCC1N(c2ccc(Cl)cc2)C(=O)N(c2ccc(Cl)cc2)C1(O)c1cccc(OC(F)(F)F)c1` (stereo in doubt) [Compound 82-1, (5S)-1,3-bis(4-chlorophenyl)-5-ethyl-4-hydroxy-4-(3-(trifluoromethoxy)phenyl)imidazolidin-2-one], the IC50 is less than 1000 nM.

For the compound `O=C1N(c2ccc(Cl)cc2)C(=O)C(O)(c2ccccc2)N1c1ccc(Cl)cc1` (stereo not drawn) [Compound 147, 1,3-bis(4-chlorophenyl)-5-hydroxy-5-phenylimidazolidine-2,4-dione], the IC50 lay in the range of 10000 to 50000 nM.
